# In PMC5312080 (mBio, 2017):
# Values joined by “and” are separate entries in the source; they are usually repeats but may differ in a detail not shown here. Equal entries are not always repeated.
# Test system: DG70-resistant mutants of H37Rv
# Assay: not given
# Format: cell-based, Mycobacterium tuberculosis
# Details: not given
Structure (SMILES),DG70 MIC90,MIC in Mtb P3 V20A [µg/mL],MIC in Mtb P7 F118L [µg/mL]
"COc1ccc(-c2cc(NC(=O)c3ccc(F)cc3Cl)ccc2OC)cc1 [DG70, 2-chloro-N-(4',6-dimethoxy-[1,1'-biphenyl]-3-yl)-4-fluorobenzamide]",>80 µg/mL and 40 µg/mL,>80,40
COc1ccc(-c2cccc(NC(=O)c3ccc(F)cc3Cl)c2)cc1 [JSF-2907],,>80,>80
COc1ccc(-c2cc(NC(=O)c3ccccc3Cl)ccc2OC)cc1 [JSF-2908],,>40,>40
COc1ccc(-c2cc(NC(=O)c3ccc(F)cc3)ccc2OC)cc1 [JSF-2909],,>80,>80
O=C(Nc1cccc(-c2ccccc2)c1)c1ccc(F)cc1Cl [JSF-2910],,>40,>40
COc1ccc(-c2cc(NC(=O)c3ccccc3)ccc2OC)cc1 [JSF-2912],,>40,>40
COc1ccc(NC(=O)c2ccc(F)cc2Cl)cc1 [JSF-2926],,40,40
COc1ccc(-c2cc(N(C)C(=O)c3ccc(F)cc3Cl)ccc2OC)cc1 [JSF-2949],,>40,>40
O=C(Nc1ccc(O)c(-c2ccc(O)cc2)c1)c1ccc(F)cc1Cl [JSF-2950],,>40,>40
COc1ccc(-c2cc(NCc3ccc(F)cc3Cl)ccc2OC)cc1 [JSF-2951],,>80,>80
COc1ccc(NC(=O)c2ccc(F)cc2Cl)cc1-c1ccccc1 [JSF-2971],,40,40

# Test system: clinical drug-susceptible and drug-resistant M. tuberculosis strains
# Assay: microbe, parasite or virus in culture
# Format: cell-based
# Details: Mycobacterium tuberculosis
row,Structure (SMILES),MIC [µg/mL]
1,"COc1ccc(-c2cc(NC(=O)c3ccc(F)cc3Cl)ccc2OC)cc1 [DG70, 2-chloro-N-(4',6-dimethoxy-[1,1'-biphenyl]-3-yl)-4-fluorobenzamide]",1.2 to 9.6

# Same assay, conditions: Mycobacterium tuberculosis, H37RV
row,Structure (SMILES),MIC90 [µg/mL]
1,"NNC(=O)c1ccncc1 [INH, isoniazid]",0.05

# Same assay, conditions: Mycobacterium tuberculosis, H37RV; read-out: MIC90
row,Structure (SMILES),MIC90 [µg/mL]
1,"COc1ccc(-c2cc(NC(=O)c3ccc(F)cc3Cl)ccc2OC)cc1 [DG70, 2-chloro-N-(4',6-dimethoxy-[1,1'-biphenyl]-3-yl)-4-fluorobenzamide]",4.8
